Literature values, collected in patent US20240350592A1, “COMPOSITION AND METHODS OF TREATMENT USING […]-ENHANCED SUPPLEMENTATION” (Xygenyx Inc., priority 2023, published 2024).
Square brackets hold non-standard residues; d marks the D form. Peptide text beside a SMILES is read from it. Cit = NC(=O)NCCC[C@H](N)C(=O)O

Experiments:
skin [1] = details: topical, concentrations 0.5-5%
[2] = even when dietary intake occurs in equal portions
[3] = compared to α-tocopherol taken as 1.0
rheumatoid arthritis = details: arthritic subjects
[4] = test system: wide dynamic range neurons in the ventroposterolateral nucleus of the thalamus
[5] = in vivo
[6] = single penetration enhancer
depression = details: patients who did not respond to traditional antidepressant medications
markers of inflammation = details: individuals with metabolic syndrome
[7] = test system: neurodegenerative diseases such as Alzheimer's Syndrome or dementia; details: dietary supplementation, doses up to 400 IU/day; controlled trials
F2-isoprostane = details: doses of 1600-3200 IU/day
coronary disease = details: dietary supplementation, doses up to 400 IU/day
skin [8] = details: topical formulations; within four weeks of treatment
[9] = in vivo; remark: listed apart in the source

For `C=CCCCCCCCCC(=O)N[C@@H](Cc1ccccc1)C(=O)O` [UP, Undecylenoyl phenylalanine], the “time of treatment to skin lightening effects” value (skin [1]) is given as at least 7 days.
For `Cc1c(O)cc2c(c1C)O[C@](C)(CCC[C@H](C)CCC[C@H](C)CCCC(C)C)CC2` [γ-tocopherol], the “concentration in vivo relative to α-tocopherol” value [2] is listed as “roughly 10%” and the relative biological activity [3] is listed as 0.1.
For `C=C1CC/C=C(\C)CC[C@@H]2[C@@H]1CC2(C)C` [β-caryophyllene], the “number of circulating and articular leukocytes” value (rheumatoid arthritis) is given as “reduced” and the “swelling of joints and lymph nodes” value (rheumatoid arthritis) is given as “reduced”.
In the case of `CCCCCc1cc(O)c2c(c1)OC(C)(C)C1CCC(C)=CC21` (stereo not shown) [THC, Δ-9-tetrahydrocannabinol], the “power in mediating pain compared to morphine” value [4] is listed as “ten times more powerful than morphine”.
For `CCNC(=O)CC[C@H](N)C(=O)O` [Theanine], the “dose generally considered safe and well-tolerated” value [5] is listed as “up to 400 mg per day”.
In the case of `CC(C)[C@@H]1CC[C@@H](C)C[C@H]1O` [Menthol], the “factor of increase of transdermal drug uptake” value [6] is given as at least 10.
For `CN1c2c([nH]c(N)nc2=O)NCC1CNc1ccc(C(=O)N[C@@H](CCC(=O)O)C(=O)O)cc1` (stereo partly shown) [5-MTHF, 5-methyltetrahydrofolate], the symptoms of depression (depression) is listed as “improved”.
For `Cc1cc(O)c(C)c2c1O[C@](C)(CCC[C@H](C)CCC[C@H](C)CCCC(C)C)CC2` [β-tocopherol], the relative biological activity [3] is listed as 0.5.
In the case of `C/C(=C\CO)CCC[C@H](C)CCC[C@H](C)CCCC(C)C` [Phytol], the solubility in water is given as “nearly insoluble in water”.
In the case of `Cc1cc(O)cc2c1O[C@](C)(CCC[C@H](C)CCC[C@H](C)CCCC(C)C)CC2` [δ-tocopherol], the “markers of inflammation in the blood” value (markers of inflammation) is given as “reduced” and the relative biological activity [3] is given as 0.03.
In the case of `Cc1c(C)c2c(c(C)c1O)CC[C@@](C)(CCC[C@H](C)CCC[C@H](C)CCCC(C)C)O2` [α-tocopherol], the “reduction of the risk of developing neurodegenerative diseases” value [7] is listed as at most 24%, the “blood plasma concentration of F2-isoprostane” value (F2-isoprostane) is listed as “significantly lower” and the “reduction of the risk of coronary disease” value (coronary disease) is listed as “up to 34%”.
For `CC[C@H](C)[C@H](NC(=O)[C@H](CC(=O)O)NC(=O)[C@@H](N)CCCCN)C(=O)N[C@@H](CCCNC(N)=O)C(N)=O` [tripeptide-10 citrulline, Tripeptide-10 citrulline] (H-KDI[Cit]-NH2), the improvement of suppleness (skin [8]) is given as at most 54%.
For `CC12CCC(CC1)C(C)(C)O2` [eucalyptol, 1,8-epoxy-p-menthane], the “factor of increase of transdermal drug uptake” value [6] is listed as “more than 10”.
For “HGH: hormone comprising a peptide chain that is synthesized in the pituitary gland”, the biological half-life [9] is given as 10-20 minutes.
